Source: the CheMixHub viscosity set
± gives the uncertainty stated by the source.

Assay: xn = mol fraction of the nth substance listed

BrCCBr + c1ccccc1
viscosity (298.15 K, 101.33 kPa, x1 = 0.0999): 0.6395 ± 0.0075 mPa·s
viscosity (298.15 K, 101.33 kPa, x1 = 0.2016): 0.6889 ± 0.008 mPa·s
viscosity (298.15 K, 101.33 kPa, x1 = 0.312): 0.8229 ± 0.0095 mPa·s
viscosity (298.15 K, 101.33 kPa, x1 = 0.4109): 0.8428 ± 0.0098 mPa·s
viscosity (298.15 K, 101.33 kPa, x1 = 0.5099): 0.8941 ± 0.01 mPa·s
viscosity (298.15 K, 101.33 kPa, x1 = 0.6073): 1.034 ± 0.012 mPa·s
viscosity (298.15 K, 101.33 kPa, x1 = 0.7101): 1.116 ± 0.013 mPa·s
viscosity (298.15 K, 101.33 kPa, x1 = 0.8038): 1.253 ± 0.014 mPa·s
viscosity (298.15 K, 101.33 kPa, x1 = 0.9005): 1.422 ± 0.016 mPa·s
viscosity (308.15 K, 101.33 kPa, x1 = 0.1052): 0.5588 ± 0.0066 mPa·s
viscosity (308.15 K, 101.33 kPa, x1 = 0.2078): 0.6034 ± 0.0071 mPa·s
viscosity (308.15 K, 101.33 kPa, x1 = 0.3146): 0.6379 ± 0.0075 mPa·s
viscosity (308.15 K, 101.33 kPa, x1 = 0.4086): 0.7026 ± 0.0082 mPa·s
viscosity (308.15 K, 101.33 kPa, x1 = 0.5068): 0.7767 ± 0.0091 mPa·s
viscosity (308.15 K, 101.33 kPa, x1 = 0.6088): 0.8569 ± 0.01 mPa·s
viscosity (308.15 K, 101.33 kPa, x1 = 0.7019): 0.961 ± 0.011 mPa·s
viscosity (308.15 K, 101.33 kPa, x1 = 0.8028): 1.128 ± 0.013 mPa·s
viscosity (308.15 K, 101.33 kPa, x1 = 0.9019): 1.219 ± 0.014 mPa·s

Brc1ccccc1 + c1ccccc1
viscosity (298.15 K, 101 kPa, x1 = 0.0867): 0.636 ± 0.017 mPa·s
viscosity (298.15 K, 101 kPa, x1 = 0.116): 0.649 ± 0.018 mPa·s
viscosity (298.15 K, 101 kPa, x1 = 0.8): 0.96 ± 0.026 mPa·s
viscosity (303.15 K, 101 kPa, x1 = 0.086): 0.61 ± 0.011 mPa·s
viscosity (303.15 K, 101 kPa, x1 = 0.176): 0.653 ± 0.011 mPa·s
viscosity (303.15 K, 101 kPa, x1 = 0.268): 0.7 ± 0.012 mPa·s
viscosity (303.15 K, 101 kPa, x1 = 0.362): 0.742 ± 0.013 mPa·s
viscosity (303.15 K, 101 kPa, x1 = 0.46): 0.785 ± 0.013 mPa·s
viscosity (303.15 K, 101 kPa, x1 = 0.561): 0.827 ± 0.014 mPa·s
viscosity (303.15 K, 101 kPa, x1 = 0.665): 0.867 ± 0.015 mPa·s
viscosity (303.15 K, 101 kPa, x1 = 0.774): 0.909 ± 0.015 mPa·s
viscosity (303.15 K, 101 kPa, x1 = 0.884): 0.951 ± 0.016 mPa·s
viscosity (308.15 K, 101 kPa, x1 = 0.0867): 0.558 ± 0.015 mPa·s
viscosity (308.15 K, 101 kPa, x1 = 0.116): 0.568 ± 0.015 mPa·s
viscosity (318.15 K, 101 kPa, x1 = 0.0867): 0.492 ± 0.013 mPa·s
viscosity (318.15 K, 101 kPa, x1 = 0.116): 0.504 ± 0.014 mPa·s
viscosity (323.15 K, 101 kPa, x1 = 0.0867): 0.461 ± 0.012 mPa·s
viscosity (323.15 K, 101 kPa, x1 = 0.116): 0.47 ± 0.013 mPa·s
viscosity (323.15 K, 101 kPa, x1 = 0.8): 0.711 ± 0.019 mPa·s

C[N+](C)(C)CC(=O)[O-] + O=C(O)CC(O)(CC(=O)O)C(=O)O
viscosity (298 K, 101.3 kPa, x1 = 0.333): 36920 ± 3600 mPa·s
viscosity (323 K, 101.3 kPa, x1 = 0.333): 2775 ± 980 mPa·s

Brc1ccccc1 + CCOC(C)=O
viscosity (298.15 K, 101 kPa, x2 = 0.0463): 0.997 ± 0.006 mPa·s
viscosity (298.15 K, 101 kPa, x2 = 0.1501): 0.906 ± 0.006 mPa·s
viscosity (298.15 K, 101 kPa, x2 = 0.2468): 0.829 ± 0.006 mPa·s
viscosity (298.15 K, 101 kPa, x2 = 0.3482): 0.756 ± 0.005 mPa·s
viscosity (298.15 K, 101 kPa, x2 = 0.4571): 0.686 ± 0.005 mPa·s
viscosity (298.15 K, 101 kPa, x2 = 0.5073): 0.656 ± 0.005 mPa·s
viscosity (298.15 K, 101 kPa, x2 = 0.5465): 0.633 ± 0.005 mPa·s
viscosity (298.15 K, 101 kPa, x2 = 0.6468): 0.58 ± 0.005 mPa·s
viscosity (298.15 K, 101 kPa, x2 = 0.75): 0.53 ± 0.005 mPa·s
viscosity (298.15 K, 101 kPa, x2 = 0.848): 0.487 ± 0.004 mPa·s
viscosity (298.15 K, 101 kPa, x2 = 0.9469): 0.448 ± 0.004 mPa·s
viscosity (308.15 K, 101 kPa, x2 = 0.0463): 0.926 ± 0.006 mPa·s
viscosity (308.15 K, 101 kPa, x2 = 0.1501): 0.844 ± 0.006 mPa·s
viscosity (308.15 K, 101 kPa, x2 = 0.2468): 0.775 ± 0.005 mPa·s
viscosity (308.15 K, 101 kPa, x2 = 0.3482): 0.707 ± 0.005 mPa·s
viscosity (308.15 K, 101 kPa, x2 = 0.4571): 0.641 ± 0.005 mPa·s
viscosity (308.15 K, 101 kPa, x2 = 0.5073): 0.612 ± 0.005 mPa·s
viscosity (308.15 K, 101 kPa, x2 = 0.5465): 0.591 ± 0.005 mPa·s
viscosity (308.15 K, 101 kPa, x2 = 0.6468): 0.539 ± 0.005 mPa·s
viscosity (308.15 K, 101 kPa, x2 = 0.75): 0.49 ± 0.004 mPa·s
viscosity (308.15 K, 101 kPa, x2 = 0.848): 0.447 ± 0.004 mPa·s
viscosity (308.15 K, 101 kPa, x2 = 0.9469): 0.407 ± 0.004 mPa·s

Brc1ccccc1 + Cc1cccc(C)c1
viscosity (293.15 K, 101 kPa, x1 = 0.112): 0.626 ± 0.011 mPa·s
viscosity (293.15 K, 101 kPa, x1 = 0.2214): 0.677 ± 0.012 mPa·s
viscosity (293.15 K, 101 kPa, x1 = 0.3339): 0.723 ± 0.013 mPa·s
viscosity (293.15 K, 101 kPa, x1 = 0.5406): 0.818 ± 0.014 mPa·s
viscosity (293.15 K, 101 kPa, x1 = 0.6754): 0.89 ± 0.015 mPa·s
viscosity (293.15 K, 101 kPa, x1 = 0.7672): 0.936 ± 0.016 mPa·s
viscosity (293.15 K, 101 kPa, x1 = 0.848): 0.978 ± 0.017 mPa·s
viscosity (293.15 K, 101 kPa, x1 = 0.9095): 1.01 ± 0.017 mPa·s
viscosity (298.15 K, 101 kPa, x1 = 0.11): 0.592 ± 0.011 mPa·s
viscosity (298.15 K, 101 kPa, x1 = 0.2179): 0.635 ± 0.011 mPa·s
viscosity (298.15 K, 101 kPa, x1 = 0.3324): 0.685 ± 0.012 mPa·s
viscosity (298.15 K, 101 kPa, x1 = 0.4083): 0.715 ± 0.013 mPa·s
viscosity (298.15 K, 101 kPa, x1 = 0.5319): 0.768 ± 0.013 mPa·s
viscosity (298.15 K, 101 kPa, x1 = 0.6412): 0.819 ± 0.014 mPa·s
viscosity (298.15 K, 101 kPa, x1 = 0.7163): 0.853 ± 0.015 mPa·s
viscosity (298.15 K, 101 kPa, x1 = 0.866): 0.927 ± 0.016 mPa·s
viscosity (303.15 K, 101 kPa, x1 = 0.1106): 0.555 ± 0.01 mPa·s
viscosity (303.15 K, 101 kPa, x1 = 0.2212): 0.592 ± 0.011 mPa·s
viscosity (303.15 K, 101 kPa, x1 = 0.3352): 0.639 ± 0.012 mPa·s
viscosity (303.15 K, 101 kPa, x1 = 0.414): 0.67 ± 0.012 mPa·s
viscosity (303.15 K, 101 kPa, x1 = 0.5251): 0.712 ± 0.013 mPa·s
viscosity (303.15 K, 101 kPa, x1 = 0.6553): 0.767 ± 0.013 mPa·s
viscosity (303.15 K, 101 kPa, x1 = 0.765): 0.815 ± 0.014 mPa·s
viscosity (303.15 K, 101 kPa, x1 = 0.8807): 0.866 ± 0.015 mPa·s

COC(=O)CC(=O)OC + ClC(Cl)Cl
viscosity (303.15 K, 101 kPa, x1 = 0.0727): 0.612 ± 0.0062 mPa·s
viscosity (303.15 K, 101 kPa, x1 = 0.1507): 0.727 ± 0.0073 mPa·s
viscosity (303.15 K, 101 kPa, x1 = 0.2329): 0.845 ± 0.0084 mPa·s
viscosity (303.15 K, 101 kPa, x1 = 0.3213): 0.968 ± 0.0095 mPa·s
viscosity (303.15 K, 101 kPa, x1 = 0.415): 1.092 ± 0.011 mPa·s
viscosity (303.15 K, 101 kPa, x1 = 0.5154): 1.222 ± 0.012 mPa·s
viscosity (303.15 K, 101 kPa, x1 = 0.6231): 1.354 ± 0.013 mPa·s
viscosity (303.15 K, 101 kPa, x1 = 0.7393): 1.492 ± 0.015 mPa·s
viscosity (303.15 K, 101 kPa, x1 = 0.8644): 1.64 ± 0.016 mPa·s

Brc1ccccc1 + COC(C)=O
viscosity (298.15 K, 101 kPa, x2 = 0.0439): 0.978 ± 0.006 mPa·s
viscosity (298.15 K, 101 kPa, x2 = 0.1485): 0.848 ± 0.006 mPa·s
viscosity (298.15 K, 101 kPa, x2 = 0.2482): 0.747 ± 0.005 mPa·s
viscosity (298.15 K, 101 kPa, x2 = 0.3503): 0.662 ± 0.005 mPa·s
viscosity (298.15 K, 101 kPa, x2 = 0.4378): 0.602 ± 0.005 mPa·s
viscosity (298.15 K, 101 kPa, x2 = 0.4901): 0.57 ± 0.005 mPa·s
viscosity (298.15 K, 101 kPa, x2 = 0.5493): 0.538 ± 0.005 mPa·s
viscosity (298.15 K, 101 kPa, x2 = 0.6489): 0.492 ± 0.004 mPa·s
viscosity (298.15 K, 101 kPa, x2 = 0.7491): 0.453 ± 0.004 mPa·s
viscosity (298.15 K, 101 kPa, x2 = 0.8491): 0.421 ± 0.004 mPa·s
viscosity (298.15 K, 101 kPa, x2 = 0.9433): 0.397 ± 0.004 mPa·s
viscosity (308.15 K, 101 kPa, x2 = 0.0439): 0.915 ± 0.006 mPa·s
viscosity (308.15 K, 101 kPa, x2 = 0.1485): 0.811 ± 0.006 mPa·s
viscosity (308.15 K, 101 kPa, x2 = 0.2482): 0.725 ± 0.005 mPa·s
viscosity (308.15 K, 101 kPa, x2 = 0.3503): 0.649 ± 0.005 mPa·s
viscosity (308.15 K, 101 kPa, x2 = 0.4378): 0.592 ± 0.005 mPa·s
viscosity (308.15 K, 101 kPa, x2 = 0.4901): 0.561 ± 0.005 mPa·s
viscosity (308.15 K, 101 kPa, x2 = 0.5493): 0.529 ± 0.005 mPa·s
viscosity (308.15 K, 101 kPa, x2 = 0.6489): 0.48 ± 0.004 mPa·s
viscosity (308.15 K, 101 kPa, x2 = 0.7491): 0.437 ± 0.004 mPa·s
viscosity (308.15 K, 101 kPa, x2 = 0.8491): 0.399 ± 0.004 mPa·s
viscosity (308.15 K, 101 kPa, x2 = 0.9433): 0.368 ± 0.004 mPa·s
